# US11053204B2, “Pyrimidinyloxy benzene derivatives as herbicides” (FMC Corporation, priority 2015, dated 2021)
# Key:
# Assay type in all cases: in vivo
# [1] = test system: blackgrass (Alopecurus myosuroides); test: Test A postemergence, visual injury rating; settings: 0 is no effect, 100 is complete control
# Procedure, shortened: (§1)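 Visual injury scored 0–100 (100 = complete control) against untreated controls about 10 days after treatment in a greenhouse. Test chemicals, formulated with surfactant in non-phytotoxic solvent, were sprayed on soil preemergence or on 2-10 cm, one- to two-leaf plants postemergence.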
# [2] = test system: galium (catchweed bedstraw, Galium aparine); test: Test A postemergence, visual injury rating; settings: 0 is no effect, 100 is complete control
# Procedure, shortened: as §1
# [3] = test system: giant foxtail (Setaria faberii); test: Test A postemergence, visual injury rating; settings: 0 is no effect, 100 is complete control
# Procedure, shortened: as §1
# [4] = test system: barnyardgrass (Echinochloa crus-galli); test: Test A postemergence, visual injury rating; settings: 0 is no effect, 100 is complete control
# Procedure, shortened: as §1
# [5] = test system: ragweed (common ragweed, Ambrosia elatior); test: Test A postemergence, visual injury rating; settings: 0 is no effect, 100 is complete control
# Procedure, shortened: as §1
# kochia (Kochia scoparia) [6] = test: Test A postemergence, visual injury rating; settings: 0 is no effect, 100 is complete control
# Procedure, shortened: as §1
# corn (Zea mays) = test: Test A postemergence, visual injury rating; settings: 0 is no effect, 100 is complete control
# Procedure, shortened: as §1
# [7] = test system: pigweed (Amaranthus retroflexus); test: Test A postemergence, visual injury rating; settings: 0 is no effect, 100 is complete control
# Procedure, shortened: as §1
# [8] = test system: wheat (Triticum aestivum); test: Test A postemergence, visual injury rating; settings: 0 is no effect, 100 is complete control
# Procedure, shortened: as §1
# [9] = test system: Italian ryegrass (Lolium multiflorum); test: Test A postemergence, visual injury rating; settings: 0 is no effect, 100 is complete control
# Procedure, shortened: as §1
# [10] = test system: sedge, umbrella (small-flower umbrella sedge, Cyperus difformis); test: Test B flooded paddy test, plant response rating; settings: 250 g ai/ha, Flood, scale of 0 to 100 where 0 is no effect and 100 is complete control, 13 to 15 days
# Procedure, shortened: (§2)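 Ratings were visual and made relative to untreated controls after 13 to 15 greenhouse days.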
# [11] = test system: ducksalad (Heteranthera limosa); test: Test B flooded paddy test, plant response rating; settings: 250 g ai/ha, Flood, scale of 0 to 100 where 0 is no effect and 100 is complete control, 13 to 15 days
# Procedure, shortened: as §2
# [12] = test system: barnyardgrass (Echinochloa crus-galli); test: Test B flooded paddy test, plant response rating; settings: 250 g ai/ha, Flood, scale of 0 to 100 where 0 is no effect and 100 is complete control, 13 to 15 days
# Procedure, shortened: as §2
# rice (Oryza sativa) = test: Test B flooded paddy test, plant response rating; settings: 250 g ai/ha, Flood, scale of 0 to 100 where 0 is no effect and 100 is complete control, 13 to 15 days
# Procedure, shortened: as §2
# [13] = test system: giant foxtail (Setaria faberii); test: Test A preemergence, visual injury rating; settings: 0 to 100 scale (0 no effect, 100 complete control)
# Procedure, shortened: as §1
# [14] = test system: barnyardgrass (Echinochloa crus-galli); test: Test A preemergence, visual injury rating; settings: 0 to 100 scale (0 no effect, 100 complete control)
# Procedure, shortened: as §1
# [15] = test system: ragweed (common ragweed, Ambrosia elatior); test: Test A preemergence, visual injury rating; settings: 0 to 100 scale (0 no effect, 100 complete control)
# Procedure, shortened: as §1
# kochia (Kochia scoparia) [16] = test: Test A preemergence, visual injury rating; settings: 0 to 100 scale (0 no effect, 100 complete control)
# Procedure, shortened: as §1
# [17] = test system: pigweed (Amaranthus retroflexus); test: Test A preemergence, visual injury rating; settings: 0 to 100 scale (0 no effect, 100 complete control)
# Procedure, shortened: as §1
# [18] = test system: Italian ryegrass (Lolium multiflorum); test: Test A preemergence, visual injury rating; settings: 0 to 100 scale (0 no effect, 100 complete control)
# Procedure, shortened: as §1
smiles,measurement,setting,value
N#CCCOC(=O)c1c(Br)cccc1Oc1ncc(Cl)cn1 [Compound 7],Blackgrass plant response rating (0 to 100 scale),[1]; 125 g ai/ha,30
same,Blackgrass plant response rating (0 to 100 scale),[1]; 500 g ai/ha,80
same,Galium plant response rating (0 to 100 scale),[2]; 125 g ai/ha,100
same,Galium plant response rating (0 to 100 scale),[2]; 500 g ai/ha,100
same,"Foxtail, Giant plant response rating (0 to 100 scale)",[3]; 125 g ai/ha,50
same,"Foxtail, Giant plant response rating (0 to 100 scale)",[3]; 500 g ai/ha,100
same,Barnyardgrass plant response rating (0 to 100 scale),[4]; 125 g ai/ha,30
same,Barnyardgrass plant response rating (0 to 100 scale),[4]; 500 g ai/ha,90
same,Ragweed plant response rating (0 to 100 scale),[5]; 125 g ai/ha,40
same,Ragweed plant response rating (0 to 100 scale),[5]; 500 g ai/ha,90
same,Kochia plant response rating (0 to 100 scale),kochia (Kochia scoparia) [6]; 125 g ai/ha,100
same,Kochia plant response rating (0 to 100 scale),kochia (Kochia scoparia) [6]; 500 g ai/ha,100
same,Corn plant response rating (0 to 100 scale),corn (Zea mays); 125 g ai/ha,10
same,Corn plant response rating (0 to 100 scale),corn (Zea mays); 500 g ai/ha,70
same,Pigweed plant response rating (0 to 100 scale),[7]; 125 g ai/ha,100
same,Pigweed plant response rating (0 to 100 scale),[7]; 500 g ai/ha,100
same,Wheat plant response rating (0 to 100 scale),[8]; 125 g ai/ha,0
same,Wheat plant response rating (0 to 100 scale),[8]; 500 g ai/ha,20
same,"Ryegrass, Italian plant response rating (0 to 100 scale)",[9]; 125 g ai/ha,20
same,"Ryegrass, Italian plant response rating (0 to 100 scale)",[9]; 500 g ai/ha,70
same,"Plant response rating, Sedge, Umbrella",[10],0
same,"Plant response rating, Ducksalad",[11],0
same,"Plant response rating, Barnyardgrass",[12],0
same,"Plant response rating, Rice",rice (Oryza sativa),0
same,"Foxtail, Giant plant response rating",[13]; 125 g ai/ha,90
same,"Foxtail, Giant plant response rating",[13]; 500 g ai/ha,100
same,Barnyardgrass plant response rating,[14]; 125 g ai/ha,50
same,Barnyardgrass plant response rating,[14]; 500 g ai/ha,100
same,Ragweed plant response rating,[15]; 500 g ai/ha,50
same,Kochia plant response rating,kochia (Kochia scoparia) [16]; 125 g ai/ha,50
same,Kochia plant response rating,kochia (Kochia scoparia) [16]; 500 g ai/ha,100
same,Pigweed plant response rating,[17]; 125 g ai/ha,100
same,Pigweed plant response rating,[17]; 500 g ai/ha,100
same,"Ryegrass, Italian plant response rating",[18]; 125 g ai/ha,0
same,"Ryegrass, Italian plant response rating",[18]; 500 g ai/ha,30
"C=CCOC(=O)c1c(Br)cccc1Oc1ncc(Cl)cn1 [Compound 22, 2-propen-1-yl 2-bromo-6-[(5-chloro-2-pyrimidinyl)oxy]benzoate]",pest or weed control at 125 g/ha,"[1]; Alopecurus myosuroides, post-emergence, 240 h, 125 g ai/ha, read-out: Blackgrass plant response rating (0 to 100 scale)",60%
same,pest or weed control at 500 g/ha,"[1]; Alopecurus myosuroides, post-emergence, 240 h, 500 g ai/ha, read-out: Blackgrass plant response rating (0 to 100 scale)",90%
same,pest or weed control at 125 g/ha,"[2]; Galium, post-emergence, 240 h, 125 g ai/ha, read-out: Galium plant response rating (0 to 100 scale)",30%
same,pest or weed control at 500 g/ha,"[2]; Galium, post-emergence, 240 h, 500 g ai/ha, read-out: Galium plant response rating (0 to 100 scale)",90%
same,pest or weed control at 125 g/ha,"[3]; Setaria faberi, post-emergence, 240 h, 125 g ai/ha, read-out: Foxtail, Giant plant response rating (0 to 100 scale)",80%
same,pest or weed control at 500 g/ha,"[3]; Setaria faberi, post-emergence, 240 h, 500 g ai/ha, read-out: Foxtail, Giant plant response rating (0 to 100 scale)",100%
same,pest or weed control at 125 g/ha,"[4]; Echinochloa crus-galli, post-emergence, 240 h, 125 g ai/ha, read-out: Barnyardgrass plant response rating (0 to 100 scale)",60%
same,pest or weed control at 500 g/ha,"[4]; Echinochloa crus-galli, post-emergence, 240 h, 500 g ai/ha, read-out: Barnyardgrass plant response rating (0 to 100 scale)",100%
same,pest or weed control at 125 g/ha,"[5]; Ambrosia artemisiifolia, post-emergence, 240 h, 125 g ai/ha, read-out: Ragweed plant response rating (0 to 100 scale)",0%
same,pest or weed control at 500 g/ha,"[5]; Ambrosia artemisiifolia, post-emergence, 240 h, 500 g ai/ha, read-out: Ragweed plant response rating (0 to 100 scale)",30%
same,pest or weed control at 125 g/ha,"kochia (Kochia scoparia) [6]; Bassia scoparia, post-emergence, 240 h, 125 g ai/ha, read-out: Kochia plant response rating (0 to 100 scale)",90%
same,pest or weed control at 500 g/ha,"kochia (Kochia scoparia) [6]; Bassia scoparia, post-emergence, 240 h, 500 g ai/ha, read-out: Kochia plant response rating (0 to 100 scale)",100%
same,plant injury at 125 g/ha,"corn (Zea mays); Zea mays, post-emergence, 240 h, 125 g ai/ha, read-out: Corn plant response rating (0 to 100 scale)",30%
same,plant injury at 500 g/ha,"corn (Zea mays); Zea mays, post-emergence, 240 h, 500 g ai/ha, read-out: Corn plant response rating (0 to 100 scale)",50%
same,pest or weed control at 125 g/ha,"[7]; Amaranthus retroflexus, post-emergence, 240 h, 125 g ai/ha, read-out: Pigweed plant response rating (0 to 100 scale)",100%
same,pest or weed control at 500 g/ha,"[7]; Amaranthus retroflexus, post-emergence, 240 h, 500 g ai/ha, read-out: Pigweed plant response rating (0 to 100 scale)",100%
same,plant injury at 125 g/ha,"[8]; Triticum aestivum, post-emergence, 240 h, 125 g ai/ha, read-out: Wheat plant response rating (0 to 100 scale)",0%
same,plant injury at 500 g/ha,"[8]; Triticum aestivum, post-emergence, 240 h, 500 g ai/ha, read-out: Wheat plant response rating (0 to 100 scale)",30%
same,pest or weed control at 125 g/ha,"[9]; Lolium multiflorum, post-emergence, 240 h, 125 g ai/ha, read-out: Ryegrass, Italian plant response rating (0 to 100 scale)",0%
same,pest or weed control at 500 g/ha,"[9]; Lolium multiflorum, post-emergence, 240 h, 500 g ai/ha, read-out: Ryegrass, Italian plant response rating (0 to 100 scale)",60%
same,pest or weed control at 250 g/ha,"[10]; Cyperus difformis, 312 h",50%
same,pest or weed control at 250 g/ha,"[11]; Heteranthera limosa, 312 h",40%
same,pest or weed control at 250 g/ha,"[12]; Echinochloa crus-galli, 312 h",0%
same,plant injury at 250 g/ha,"rice (Oryza sativa); Oryza sativa, 312 h",0%
same,pest or weed control at 125 g/ha,"[13]; Setaria faberi, pre-emergence, 240 h, 125 g ai/ha, read-out: Foxtail, Giant plant response rating",100%
same,pest or weed control at 500 g/ha,"[13]; Setaria faberi, pre-emergence, 240 h, 500 g ai/ha, read-out: Foxtail, Giant plant response rating",100%
same,pest or weed control at 125 g/ha,"[14]; Echinochloa crus-galli, pre-emergence, 240 h, 125 g ai/ha, read-out: Barnyardgrass plant response rating",40%
same,pest or weed control at 500 g/ha,"[14]; Echinochloa crus-galli, pre-emergence, 240 h, 500 g ai/ha, read-out: Barnyardgrass plant response rating",100%
same,pest or weed control at 125 g/ha,"[15]; Ambrosia artemisiifolia, pre-emergence, 240 h, 125 g ai/ha, read-out: Ragweed plant response rating",0%
same,pest or weed control at 500 g/ha,"[15]; Ambrosia artemisiifolia, pre-emergence, 240 h, 500 g ai/ha, read-out: Ragweed plant response rating",0%
same,pest or weed control at 125 g/ha,"kochia (Kochia scoparia) [16]; Bassia scoparia, pre-emergence, 240 h, 125 g ai/ha, read-out: Kochia plant response rating",30%
same,pest or weed control at 500 g/ha,"kochia (Kochia scoparia) [16]; Bassia scoparia, pre-emergence, 240 h, 500 g ai/ha, read-out: Kochia plant response rating",100%
same,pest or weed control at 125 g/ha,"[17]; Amaranthus retroflexus, pre-emergence, 240 h, 125 g ai/ha, read-out: Pigweed plant response rating",100%
same,pest or weed control at 500 g/ha,"[17]; Amaranthus retroflexus, pre-emergence, 240 h, 500 g ai/ha, read-out: Pigweed plant response rating",100%
same,pest or weed control at 125 g/ha,"[18]; Lolium multiflorum, pre-emergence, 240 h, 125 g ai/ha, read-out: Ryegrass, Italian plant response rating",30%
same,pest or weed control at 500 g/ha,"[18]; Lolium multiflorum, pre-emergence, 240 h, 500 g ai/ha, read-out: Ryegrass, Italian plant response rating",90%
